# Literature values, collected in patent US20180055813A1, “COMPOSITIONS AND METHODS FOR TREATING ATRIAL FIBRILLATION” (Edge Therapeutics, Inc., priority 2016, published 2018).
# Read-outs that look alike come from different tables or passages of the source.
# What was measured:
# N-type calcium current = N-type calcium current (Homo sapiens, UniProt Q00975); conditions: at 300 nM to 500 nM
# [1] = test system: K+ and Na+ currents, and L, P/Q and T-type calcium currents
# [2] = test system: voltage-dependent sodium channels; conditions: relative to phenytoin
# [3] = test system: high-plateau action potentials
# [4] = for incidence of postoperative AF: AFIST I, patients >60 years
# [5] = phase III clinical trials, compared with placebo
# Sequence of N-type calcium current (Q00975 whole entry): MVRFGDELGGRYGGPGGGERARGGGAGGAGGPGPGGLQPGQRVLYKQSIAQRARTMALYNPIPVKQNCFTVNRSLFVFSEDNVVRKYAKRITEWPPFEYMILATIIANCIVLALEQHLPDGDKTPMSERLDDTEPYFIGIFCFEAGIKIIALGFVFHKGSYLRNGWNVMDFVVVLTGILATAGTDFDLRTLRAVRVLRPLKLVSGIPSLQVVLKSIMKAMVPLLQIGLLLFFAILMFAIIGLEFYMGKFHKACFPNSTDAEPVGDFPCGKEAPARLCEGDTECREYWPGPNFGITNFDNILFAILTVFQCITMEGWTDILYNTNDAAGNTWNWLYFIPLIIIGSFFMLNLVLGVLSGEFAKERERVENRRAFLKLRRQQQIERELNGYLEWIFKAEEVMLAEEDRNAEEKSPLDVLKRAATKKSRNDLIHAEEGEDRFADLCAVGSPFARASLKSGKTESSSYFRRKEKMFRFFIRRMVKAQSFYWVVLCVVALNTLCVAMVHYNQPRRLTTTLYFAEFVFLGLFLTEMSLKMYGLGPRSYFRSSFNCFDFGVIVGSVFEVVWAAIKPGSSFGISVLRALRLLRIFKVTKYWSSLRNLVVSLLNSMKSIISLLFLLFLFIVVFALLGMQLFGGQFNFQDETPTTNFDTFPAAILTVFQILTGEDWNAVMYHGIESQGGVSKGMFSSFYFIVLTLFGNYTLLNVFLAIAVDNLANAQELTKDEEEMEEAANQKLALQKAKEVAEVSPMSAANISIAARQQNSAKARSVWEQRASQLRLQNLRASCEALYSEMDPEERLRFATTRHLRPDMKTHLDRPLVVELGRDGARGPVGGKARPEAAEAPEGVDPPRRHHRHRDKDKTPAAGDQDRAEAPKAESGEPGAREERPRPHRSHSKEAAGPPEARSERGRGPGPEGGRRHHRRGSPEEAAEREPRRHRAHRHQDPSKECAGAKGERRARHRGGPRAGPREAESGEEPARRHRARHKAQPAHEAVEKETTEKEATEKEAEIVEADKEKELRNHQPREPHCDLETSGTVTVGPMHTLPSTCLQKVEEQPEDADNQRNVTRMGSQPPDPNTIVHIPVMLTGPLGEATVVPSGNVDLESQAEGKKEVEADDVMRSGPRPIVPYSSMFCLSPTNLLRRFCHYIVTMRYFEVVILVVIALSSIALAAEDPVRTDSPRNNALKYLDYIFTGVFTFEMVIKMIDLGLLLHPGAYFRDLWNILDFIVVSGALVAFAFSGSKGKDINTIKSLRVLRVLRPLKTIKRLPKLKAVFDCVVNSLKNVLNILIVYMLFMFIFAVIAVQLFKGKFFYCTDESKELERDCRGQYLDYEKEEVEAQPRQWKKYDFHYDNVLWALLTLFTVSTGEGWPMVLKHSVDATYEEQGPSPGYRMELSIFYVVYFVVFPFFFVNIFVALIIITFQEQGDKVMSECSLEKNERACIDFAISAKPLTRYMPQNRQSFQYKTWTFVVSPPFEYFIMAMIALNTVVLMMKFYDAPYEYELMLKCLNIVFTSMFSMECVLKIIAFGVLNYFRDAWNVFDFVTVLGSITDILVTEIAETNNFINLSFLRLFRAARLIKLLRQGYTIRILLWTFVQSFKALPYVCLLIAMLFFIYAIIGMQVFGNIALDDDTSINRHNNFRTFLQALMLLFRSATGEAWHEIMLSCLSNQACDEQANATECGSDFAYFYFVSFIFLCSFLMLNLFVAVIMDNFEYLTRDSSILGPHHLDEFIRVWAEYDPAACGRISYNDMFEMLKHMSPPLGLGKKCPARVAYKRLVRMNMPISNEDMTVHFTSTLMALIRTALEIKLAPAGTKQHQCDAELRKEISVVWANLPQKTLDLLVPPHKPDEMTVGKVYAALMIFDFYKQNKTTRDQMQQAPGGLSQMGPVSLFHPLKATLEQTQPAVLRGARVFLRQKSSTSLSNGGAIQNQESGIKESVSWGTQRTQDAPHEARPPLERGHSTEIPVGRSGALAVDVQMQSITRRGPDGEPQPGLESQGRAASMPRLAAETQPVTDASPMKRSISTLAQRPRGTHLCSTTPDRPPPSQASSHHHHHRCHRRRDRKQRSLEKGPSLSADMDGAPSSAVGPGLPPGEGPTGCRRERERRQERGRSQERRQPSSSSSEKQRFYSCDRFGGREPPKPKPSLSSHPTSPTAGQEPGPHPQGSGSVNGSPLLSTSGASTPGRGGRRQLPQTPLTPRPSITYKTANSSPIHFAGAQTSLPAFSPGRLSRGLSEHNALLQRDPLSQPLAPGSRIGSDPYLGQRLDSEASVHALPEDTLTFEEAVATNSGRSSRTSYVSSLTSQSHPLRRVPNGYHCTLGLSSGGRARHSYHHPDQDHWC
compound,measurement,setting,value
CCOC(=O)[C@H](CCc1ccccc1)N[C@@H](C)C(=O)N1CCC[C@H]1C(=O)O [enalapril],relative risk reduction for the development of AF,compared to placebo,78%
SNX-482,N-type calcium current blocked,N-type calcium current,30-50%
same,block of R-type calcium current,"R-type calcium current; neurohypophysial nerve endings, 40 nM concentration",blocks
same,effect on R-type current,"R-type calcium current; preparations of the neuronal cell body, retinal ganglion cells and hippocampal pyramidal cells",no significant effect
same,"effect on K+ and Na+ currents, and L, P/Q and T-type calcium currents",[1],no effect
NC(=O)N1c2ccccc2C=Cc2ccccc21 [carbamazepine],faster rate of binding to depolarized channels compared to phenytoin,[2],5 fold
same,lower affinity for depolarized channels compared to phenytoin,[2],3 fold
"Cc1oc2ccccc2c1Cc1cc(I)c(OCC(=O)O)c(I)c1 [KB130015, 2-methyl-3-(3,5-diiodo-4-carboxymethoxybenzyl)benzofuran]",QT lengthening / prolongation of high-plateau action potentials,[3],devoid of QT lengthening effects
CCCCc1oc2ccccc2c1C(=O)c1cc(I)c(OCCN(CC)CC)c(I)c1 [amiodarone],"incidence of postoperative AF, patients","[4]; 1-week pre-operative oral regimen, placebo 53%",25%
same,incidence of postoperative AF,[4]; amiodarone alone,35%
same,incidence of postoperative AF,[4]; amiodarone with concomitant postoperative β-blockers,16%
same,"incidence of postoperative AF, patients","[4]; postoperative intravenous treatment, placebo 47%",35%
same,"incidence of postoperative AF, patients","[4]; treatment throughout the peri-operative period, placebo 25%",16%
"CCCCc1oc2ccc(NS(C)(=O)=O)cc2c1C(=O)c1ccc(OCCCN(CCCC)CCCC)cc1 [dronedarone, n-(2-butyl-3-(4-(3-dibutylaminopropoxy)-benzoyl)benzofuran-5-yl)-methanesulfonamide]",lowering of risk of AF relapse,[5],25%
CCCCC1=NC2(CCCC2)C(=O)N1Cc1ccc(-c2ccccc2-c2nnn[nH]2)cc1 [irbesartan],prevention of recurrence of AF,irbesartan plus amiodarone versus amiodarone alone,more effectively than amiodarone alone
